Values of other authors in paper PMC6311893, “Computational prediction of plasma protein binding of cyclic peptides from small molecule experimental data using sparse modeling techniques” (BMC Bioinformatics, 2018).

tested on: plasma protein; settings: fraction bound to plasma protein; small molecule dataset, sheet 1-SM (Set Dte = test, Dtr = training); ref Ingle et al.; cited from earlier work

| Molecule | PPB (fb) |
| --- | --- |
| CC(C)NCC(O)COc1ccc(COCCOC(C)C)cc1 (stereo not shown) [Bisoprolol] | 0.32 |
| COCC(=O)O[C@]1(CCN(C)CCCc2nc3ccccc3[nH]2)CCc2cc(F)ccc2[C@@H]1C(C)C [Mibefradil] | 0.99 |
| CC(C(=O)O)c1ccc2c(c1)[nH]c1ccc(Cl)cc12 (stereo not shown) [Carprofen] | 0.99 |
| CCN(CC)C(=O)C1(c2ccccc2)CC1CN (stereo not shown) [milnacipran] | 0.13 |
| C[C@H](N[C@@H](CCc1ccccc1)C(=O)O)C(=O)N1Cc2ccccc2C[C@H]1C(=O)O [Quinaprilat] | 0.68 |
| NCC[C@H](O)C(=O)N[C@@H]1C[C@H](N)[C@@H](O[C@H]2O[C@H](CN)CC[C@H]2N)[C@H](O)[C@H]1O[C@H]1O[C@H](CO)[C@@H](O)[C@H](N)[C@H]1O [arbekacin] | 0.08 |
| CC1(C)SC2C(NC(=O)C(F)c3cccc(N)c3)C(=O)N2C1C(=O)O (stereo not shown) [penicillin30] | 0.26 |
| COC(=O)[C@H](c1ccccc1Cl)N1CCc2sccc2C1 [clopidogrel] | 0.98 |
| CCN(CC)C(=O)Nc1ccc(OCC(O)CNC(C)(C)C)c(C(C)=O)c1 (stereo not shown) [celiprolol] | 0.25 |
| NC[C@H]1O[C@H](O[C@H]2[C@H](O)[C@@H](O[C@H]3O[C@H](CO)[C@@H](O)[C@H](N)[C@H]3O)[C@H](N)C[C@@H]2N)[C@H](N)C[C@@H]1O [Tobramycin] | 0.05 |
| COC(CC(=O)NC1C(=O)N2C1SC(C)(C)C2C(=O)O)c1ccc(Cl)s1 (stereo not shown) [penicillin75] | 0.84 |
| C=C[C@H]1C[N@@]2CC[C@H]1C[C@@H]2[C@@H](O)c1ccnc2ccc(OC)cc12 [Quinidine] | 0.74 |
| CCOC(=O)[C@H](CCc1ccccc1)N[C@@H](C)C(=O)N1[C@H](C(=O)O)C[C@H]2CCCC[C@@H]21 [trandolapril] | 0.84 |
| CC1(C)O[C@@H]2C[C@H]3[C@@H]4C[C@H](F)C5=CC(=O)C=C[C@]5(C)[C@H]4[C@@H](O)C[C@]3(C)[C@]2(C(=O)CO)O1 [flunisolide] | 0.5 |
| COCC1CN(c2ccc(OCc3cccc(C#N)c3)cc2)C(=O)O1 (stereo not shown) [cimoxatone] | 0.94 |
| COc1ccc(C(=O)N2CCCC2=O)cc1 [aniracetam] | 0.66 |
| Cc1c(N(C)CS(=O)(=O)O)c(=O)n(-c2ccccc2)n1C [dipyrone] | 0.6 |
| C#CC1(O)CC[C@H]2[C@@H]3CCC4=CC(=O)CC[C@@H]4[C@H]3CC[C@@]21CC (stereo partly shown) [norgestrel] | 0.97 |
| CC(C)(O)c1ccccc1CC[C@@H](SCC1(CC(=O)O)CC1)c1cccc(/C=C/c2ccc3ccc(Cl)cc3n2)c1 [Montelukast] | 0.99 |
| CC(C)(C)c1ccc(C(=O)CCCN2CCC(OC(c3ccccc3)c3ccccc3)CC2)cc1 [ebastine] | 0.98 |
| COc1ccccc1-n1cc(C(=O)O)c(=O)c2cc(F)c(N3CCNCC3)cc21 [5a(o-OCH3)] | 0.29 |
| CC1(C)SC2C(NC(=O)C(Cl)c3cccc(Cl)c3)C(=O)N2C1C(=O)O (stereo not shown) [penicillin23] | 0.94 |
| N[C@@H]1CN(c2c(F)cc3c(=O)c(C(=O)O)cn([C@@H]4C[C@@H]4F)c3c2Cl)CC12CC2 [Sitafloxacin] | 0.49 |

same assay, conditions: fraction bound to plasma protein; small molecule dataset, sheet 1-SM, Set Dtr; ref Ingle et al.; cited from earlier work

| Molecule | PPB (fb) |
| --- | --- |
| O=C(O)[C@H]1/C(=C/CO)O[C@@H]2CC(=O)N21 [Clavulanic Acid] | 0.09 |
| Cc1ccc(S(=O)(=O)NC(=O)NN2CCCCCC2)cc1 [tolazamide] | 0.97 |
| CC(C)NCC(O)COc1ccc(CCOCC2CC2)cc1 (stereo not shown) [Betaxolol] | 0.56 |
| CC(=O)N(CC(O)CO)c1c(I)c(C(=O)NCC(O)CO)c(I)c(C(=O)NCC(O)CO)c1I (stereo not shown) [Iohexol] | 0.02 |
| Nc1nc(F)nc2c1ncn2[C@@H]1O[C@H](CO)[C@@H](O)[C@@H]1O [Fludarabine] | 0.12 |
| COc1ccc(C[C@@H]2c3cc(OC)c(OC)cc3CC[N@+]2(C)CCC(=O)OCCCCCOC(=O)CC[N@@+]2(C)CCc3cc(OC)c(OC)cc3[C@H]2Cc2ccc(OC)c(OC)c2)cc1OC [Cisatracurium] | 0.38 |
| COc1c(N2CCNC(C)C2)c(F)cc2c(=O)c(C(=O)O)cn(C3CC3)c12 (stereo not shown) [Gatifloxacin] | 0.2 |
| O=C(O)c1cc(-c2ccc(F)cc2F)ccc1O [Diflunisal] | 0.99 |
| Cc1ccc(C(=O)c2ccc(CC(=O)O)n2C)cc1 [tolmetin] | 0.99 |
| CC[C@H]1OC(=O)[C@H](C)[C@@H](O[C@H]2C[C@@](C)(OC)[C@@H](O)[C@H](C)O2)[C@H](C)[C@@H](O[C@@H]2O[C@H](C)C[C@H](N(C)C)[C@H]2O)[C@](C)(O)C[C@@H](C)CN(C)[C@H](C)[C@@H](O)[C@]1(C)O [Azithromycin] | 0.23 |
| Nc1nc(Cl)nc2c1ncn2[C@H]1C[C@H](O)[C@@H](CO)O1 [Cladribine] | 0.2 |
| CCOC(=O)Nc1ccc(NCc2ccc(F)cc2)nc1N [Flupirtine] | 0.82 |
| N[C@@H](Cc1c[nH]c2ccccc12)C(=O)O [Tryptophan] | 0.8 |
| CCCC(=O)Nc1ccc(OCC(O)CNC(C)C)c(C(C)=O)c1 (stereo not shown) [Acebutolol] | 0.24 |
| Cc1[nH]cnc1CN1CCc2c(c3ccccc3n2C)C1=O [Alosetron] | 0.72 |
| O=C1CCc2ccc(OCCCCN3CCN(c4cccc(Cl)c4Cl)CC3)cc2N1 [Aripiprazole] | 0.99 |

same assay, conditions: fraction bound to plasma protein; small molecule dataset, sheet 1-SM; ref Ingle et al.; cited from earlier work

| Molecule | PPB (fb) |
| --- | --- |
| CCOCC(=O)NC1C(=O)N2C1SC(C)(C)C2C(=O)O (stereo not shown) [penicillin6] | 0.28 |
| CCCCC(OCC)C(=O)NC1C(=O)N2C1SC(C)(C)C2C(=O)O (stereo not shown) [penicillin10] | 0.74 |
| CCOC(=O)c1c(N)sc2c1CCN(Cc1ccccc1)C2 [Tinoridine] | 0.92 |
| COC(=O)[C@@H]1CC2=CC(=O)CC[C@]2(C)[C@@]23O[C@@H]2C[C@@]2(C)[C@@H](CC[C@@]24CCC(=O)O4)[C@H]13 [eplerenone] | 0.46 |
| Cc1nc2ccc(CN(C)c3ccc(C(=O)N[C@@H](CCC(=O)O)C(=O)O)s3)cc2c(=O)[nH]1 [raltitrexed] | 0.93 |
| COC1=C(OC)C(=O)C(CCCCCCCCCCO)=C(C)C1=O [idebenone] | 0.9 |
| Cc1ncc([N+](=O)[O-])n1CC(O)CCl (stereo not shown) [ornidazole] | 0.15 |
| O=C(O)c1ccc(O)cc1 [p-hydroxybenzoic acid] | 0.35 |
| CCn1cc(C(=O)O)c(=O)c2ccc(C)nc21 [nalidixic acid] | 0.94 |
| COC(C(=O)NC1C(=O)N2C1SC(C)(C)C2C(=O)O)c1ccc(Cl)c(F)c1 (stereo not shown) [penicillin44] | 0.83 |
| N[C@@H](Cc1cc(I)c(Oc2ccc(O)c(I)c2)c(I)c1)C(=O)O [liothyronine] | 0.98 |
| CC(C(=O)NC1C(=O)N2C1SC(C)(C)C2C(=O)O)c1ccccc1 (stereo not shown) [penicillin19] | 0.68 |
| CN(c1nccc(=O)[nH]1)C1CCN(c2nc3ccccc3n2Cc2ccc(F)cc2)CC1 [mizolastine] | 0.98 |
| CN1CCOC(c2ccccc2)c2ccccc2C1 (stereo not shown) [nefopam] | 0.73 |
| CCCc1nc(C(C)(C)O)c(C(=O)O)n1Cc1ccc(-c2ccccc2-c2nnn[nH]2)cc1 [Olmesartan] | 0.99 |
| CC(C)(C)NC[C@H](O)COc1nsnc1N1CCOCC1 [Timolol] | 0.1 |
| CC(C)NCC(O)c1ccc(NS(C)(=O)=O)cc1 (stereo not shown) [Sotalol] | 0.28 |
| CC(Oc1ccccc1Cl)C(=O)NC1C(=O)N2C1SC(C)(C)C2C(=O)O (stereo not shown) [penicillin55] | 0.96 |
| CN(CCCN1c2ccccc2CCc2ccccc21)CC(=O)c1ccc(Cl)cc1 [lofepramine] | 0.99 |
| CC(C(=O)O)c1ccc(C(=O)c2ccccc2)s1 (stereo not shown) [tiaprofenic acid] | 0.98 |
| Clc1ccc2nsnc2c1NC1=NCCN1 [Tizanidine] | 0.3 |
| CCCCC1C(=O)N(c2ccccc2)N(c2ccc(O)cc2)C1=O (stereo not shown) [oxyphenbutazone] | 0.99 |
| C=C(CC)C(=O)c1ccc(OCC(=O)O)c(Cl)c1Cl [ethacrynic acid] | 0.9 |
| COC(C(=O)NC1C(=O)N2C1SC(C)(C)C2C(=O)O)c1cc(Cl)c(Cl)c(Cl)c1 (stereo not shown) [penicillin43] | 0.96 |
| COC(CC(=O)NC1C(=O)N2C1SC(C)(C)C2C(=O)O)c1ccc(Br)s1 (stereo not shown) [penicillin74] | 0.9 |
| CCC(Cc1c(I)cc(I)c(N)c1I)C(=O)O (stereo not shown) [iopanoic acid] | 0.79 |
| COc1cc(NC(C)CCCN)c2ncccc2c1 (stereo not shown) [primaquine] | 0.8 |
| CC1(C)S[C@@H]2[C@H](NC(=O)[C@H](C(=O)O)c3ccsc3)C(=O)N2[C@H]1C(=O)O [Ticarcillin] | 0.51 |

same assay, conditions: plasma; cited from earlier work

| Molecule | PPB (fb) |
| --- | --- |
| CCC(OC(C)=O)C(CC(C)N(C)C)(c1ccccc1)c1ccccc1 (stereo not shown) [laam] | 0.8 |
| C=CCC1(C(C)C#CCC)C(=O)N=C(O)N(C)C1=O (stereo not shown) [Methohexital] | 0.75 |
| CCN[C@@H](C)Cc1cccc(C(F)(F)F)c1 [Dexfenfluramine] | 0.34 |
| CC/C=C\C/C=C\C/C=C\C/C=C\C/C=C\C/C=C/CCC(=O)O[C@@H](C(=O)O[C@H]1C[C@@]2(O)[C@@H](OC(=O)c3ccccc3)C3[C@](C)(C(=O)[C@H](OC(C)=O)C(=C1C)C2(C)C)[C@@H](O)C[C@H]1OC[C@@]31OC(C)=O)[C@@H](NC(=O)c1ccccc1)c1ccccc1 (stereo partly shown) [DHA Paclitaxel] | 0.9962 |
| CCN(C(C)=O)c1cccc(-c2ccnc3c(C#N)cnn23)c1 [Zaleplon] | 0.6 |
| C=CC1(O)CN2CCC1CC2C(O)c1ccnc2ccc(OC)cc12 (stereo not shown) [3-Hydroxy Quinidine] | 0.6 |
| CCN1CCN(C(=O)N[C@@H](C(=O)N[C@@H]2C(=O)N3[C@@H]2SC(C)(C)[C@@H]3C(=O)O)c2ccccc2)C(=O)C1=O [Piperacillin] | 0.4 |
| CCC1(C2=CCCCC2)C(=O)NC(=O)NC1=O [cyclobarbital] | 0.7 |
| CCC1(O)CN2CCC1CC2C(O)c1ccnc2ccc(OC)cc12 (stereo not shown) [Hydroxydihydroquinidine] | 0.53 |
| Cefmetazole | 0.77 |
| Rolitetracycline | 0.5 |
| CCC(=O)O[C@](Cc1ccccc1)(c1ccccc1)[C@H](C)CN(C)C [Propoxyphene] | 0.75 |
